Measurements from PubChem BioAssay (NCI).
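Results reflect a 48-hour exposure of cells in 96-well plates to compound at five concentrations. TGI: concentration producing complete growth inhibition.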

Columns and labels:
Experiment in all cases: NCI tumour cell line growth inhibition, 48 h
[1] = system: OVCAR-5 ovarian
[2] = system: SK-MEL-2 melanoma
[3] = system: SNB-19 CNS
[4] = system: SK-MEL-28 melanoma
[5] = system: ACHN renal
[6] = system: PC-3 prostate
[7] = system: CCRF-CEM leukemia
[8] = system: RXF 393 renal
[9] = system: HS 578T breast
[10] = system: NCI/ADR-RES ovarian
[11] = system: KM12 colon
[12] = system: 786-0 renal
[13] = system: SF-268 CNS
[14] = system: SNB-75 CNS
[15] = system: NCI-H460 lung
[16] = system: MCF7 breast
[17] = system: MOLT-4 leukemia
[18] = system: OVCAR-3 ovarian
[19] = system: UO-31 renal
[20] = system: M14 melanoma
[21] = system: UACC-62 melanoma
[22] = system: T-47D breast
[23] = system: COLO 205 colon
[24] = system: HOP-92 NSCLC
[25] = system: LOX IMVI melanoma
[26] = system: IGROV1 ovarian
[27] = system: BT-549 breast
[28] = system: DU-145 prostate
[29] = system: A549 NSCLC
[30] = system: SR leukemia
[31] = system: RPMI-8226 leukemia
[32] = system: A498 renal
[33] = system: HL-60(TB) leukemia
[34] = system: SF-539 CNS
[35] = system: OVCAR-4 ovarian
[36] = system: NCI-H522 lung
[37] = system: HT29 colon
[38] = system: OVCAR-8 ovarian
[39] = system: MDA-MB-435
[40] = system: SN12C renal
[41] = system: UACC-257 melanoma
[42] = system: HCC-2998 colon
[43] = system: CAKI-1 renal
[44] = system: SK-OV-3 ovarian
[45] = system: SW-620 colon
[46] = system: MDA-MB-231 breast
[47] = system: HOP-62 NSCLC
[48] = system: HCT-15 colon
[49] = system: HCT-116 colon
[50] = system: SK-MEL-5 melanoma
[51] = system: MDA-N
[52] = system: SF-295 CNS
[53] = system: TK-10 renal
[54] = system: K-562 leukemia
[55] = system: NCI-H226 lung
[56] = system: U251 CNS
[57] = system: EKVX NSCLC
[58] = system: NCI-H23 lung
[59] = system: MALME-3M melanoma

O=C(/C=C/c1ccc(OCc2cccc(Cl)c2)cc1)NO
TGI [1]: 71.5 µM | TGI [2]: 53.7 µM | TGI [3]: 60.7 µM | TGI [4]: > 100 µM | TGI [5]: 23.5 µM | TGI [6]: 47.4 µM | TGI [7]: 26.6 µM | TGI [8]: 42.4 µM | TGI [9]: > 100 µM | TGI [10]: 23.3 µM | TGI [11]: 43 µM | TGI [12]: 23.9 µM | TGI [13]: > 100 µM | TGI [14]: > 100 µM | TGI [15]: 41.9 µM | TGI [16]: > 100 µM | TGI [17]: 18 µM | TGI [18]: > 100 µM | TGI [19]: 18.7 µM | TGI [20]: > 100 µM | TGI [21]: 27.9 µM | TGI [22]: 36.7 µM | TGI [23]: 32 µM | TGI [24]: 33.8 µM | TGI [25]: 24.4 µM | TGI [26]: 38 µM | TGI [27]: 80.7 µM | TGI [28]: 40.8 µM | TGI [29]: 51.2 µM | TGI [30]: 11.3 µM | TGI [31]: 44.8 µM | TGI [32]: 27.8 µM | TGI [33]: 35.9 µM | TGI [34]: > 100 µM | TGI [35]: 38 µM | TGI [36]: 49.4 µM | TGI [37]: 28.2 µM | TGI [38]: 20.3 µM | TGI [39]: 53.3 µM | TGI [40]: 49.4 µM | TGI [41]: > 100 µM | TGI [42]: 31 µM | TGI [43]: 34.2 µM | TGI [44]: 49.3 µM | TGI [45]: > 100 µM | TGI [46]: 44.1 µM | TGI [47]: > 100 µM | TGI [48]: 20.8 µM | TGI [49]: 25.8 µM | TGI [50]: 45.7 µM | TGI [51]: 44.5 µM | TGI [52]: 50.1 µM | TGI [53]: 67.1 µM | TGI [54]: > 100 µM | TGI [55]: 35.6 µM | TGI [56]: 47.9 µM | TGI [57]: > 100 µM | TGI [58]: 26 µM

CCOC(=O)/C=C/[C@H](O[Si](CC)(CC)CC)C(C)(C)C
TGI [1]: > 100 µM | TGI [2]: 80.6 µM | TGI [3]: > 100 µM | TGI [5]: > 100 µM | TGI [6]: > 100 µM | TGI [7]: 48.6 µM | TGI [8]: > 100 µM | TGI [9]: > 100 µM | TGI [10]: > 100 µM | TGI [11]: > 100 µM | TGI [12]: > 100 µM | TGI [13]: > 100 µM | TGI [14]: > 100 µM | TGI [15]: > 100 µM | TGI [16]: 66.9 µM | TGI [17]: > 100 µM | TGI [18]: > 100 µM | TGI [19]: > 100 µM | TGI [21]: > 100 µM | TGI [22]: > 100 µM | TGI [23]: > 100 µM | TGI [24]: > 100 µM | TGI [25]: 46.2 µM | TGI [26]: > 100 µM | TGI [27]: > 100 µM | TGI [28]: > 100 µM | TGI [59]: > 100 µM | TGI [29]: > 100 µM | TGI [30]: 50.7 µM | TGI [31]: 41.3 µM | TGI [32]: > 100 µM | TGI [34]: > 100 µM | TGI [35]: > 100 µM | TGI [36]: > 100 µM | TGI [37]: > 100 µM | TGI [38]: > 100 µM | TGI [39]: > 100 µM | TGI [40]: > 100 µM | TGI [41]: > 100 µM | TGI [42]: > 100 µM | TGI [43]: > 100 µM | TGI [44]: > 100 µM | TGI [45]: > 100 µM | TGI [46]: > 100 µM | TGI [47]: > 100 µM | TGI [48]: > 100 µM | TGI [49]: > 100 µM | TGI [50]: > 100 µM | TGI [51]: > 100 µM | TGI [52]: > 100 µM | TGI [53]: > 100 µM | TGI [54]: > 100 µM | TGI [55]: > 100 µM | TGI [56]: 65.8 µM | TGI [57]: > 100 µM | TGI [58]: > 100 µM

O=C(O)c1ccc(OCc2ccccc2)c(Cl)c1
TGI [1]: > 100 µM | TGI [2]: > 100 µM | TGI [3]: > 100 µM | TGI [4]: > 100 µM | TGI [5]: > 100 µM | TGI [6]: > 100 µM | TGI [7]: > 100 µM | TGI [8]: > 100 µM | TGI [9]: > 100 µM | TGI [10]: > 100 µM | TGI [11]: > 100 µM | TGI [12]: > 100 µM | TGI [13]: > 100 µM | TGI [14]: > 100 µM | TGI [15]: > 100 µM | TGI [16]: > 100 µM | TGI [17]: > 100 µM | TGI [18]: > 100 µM | TGI [19]: > 100 µM | TGI [20]: > 100 µM | TGI [21]: > 100 µM | TGI [22]: > 100 µM | TGI [23]: > 100 µM | TGI [24]: > 100 µM | TGI [25]: > 100 µM | TGI [26]: > 100 µM | TGI [27]: > 100 µM | TGI [28]: > 100 µM | TGI [59]: > 100 µM | TGI [29]: > 100 µM | TGI [30]: > 100 µM | TGI [31]: > 100 µM | TGI [32]: > 100 µM | TGI [33]: > 100 µM | TGI [34]: > 100 µM | TGI [35]: > 100 µM | TGI [36]: > 100 µM | TGI [37]: > 100 µM | TGI [38]: > 100 µM | TGI [39]: > 100 µM | TGI [40]: > 100 µM | TGI [41]: > 100 µM | TGI [43]: > 100 µM | TGI [44]: > 100 µM | TGI [45]: > 100 µM | TGI [46]: > 100 µM | TGI [47]: > 100 µM | TGI [48]: > 100 µM | TGI [49]: > 100 µM | TGI [50]: > 100 µM | TGI [51]: > 100 µM | TGI [52]: > 100 µM | TGI [53]: > 100 µM | TGI [54]: > 100 µM | TGI [55]: > 100 µM | TGI [56]: > 100 µM | TGI [57]: > 100 µM | TGI [58]: > 100 µM

O=S1(=O)Cc2ccc3c4c2-c2c(ccc5ccc(c-4c25)CS(=O)(=O)C3)C1
TGI [1]: > 100 µM | TGI [2]: > 100 µM | TGI [3]: > 100 µM | TGI [4]: > 100 µM | TGI [5]: > 100 µM | TGI [6]: > 100 µM | TGI [9]: > 100 µM | TGI [10]: > 100 µM | TGI [11]: > 100 µM | TGI [12]: > 100 µM | TGI [13]: > 100 µM | TGI [14]: > 100 µM | TGI [15]: > 100 µM | TGI [16]: > 100 µM | TGI [17]: > 100 µM | TGI [18]: > 100 µM | TGI [19]: > 100 µM | TGI [20]: > 100 µM | TGI [21]: > 100 µM | TGI [22]: > 100 µM | TGI [24]: > 100 µM | TGI [25]: > 100 µM | TGI [26]: > 100 µM | TGI [27]: > 100 µM | TGI [28]: > 100 µM | TGI [59]: > 100 µM | TGI [29]: > 100 µM | TGI [30]: 69 µM | TGI [31]: > 100 µM | TGI [32]: > 100 µM | TGI [33]: > 100 µM | TGI [34]: > 100 µM | TGI [35]: > 100 µM | TGI [36]: > 100 µM | TGI [37]: > 100 µM | TGI [38]: > 100 µM | TGI [39]: > 100 µM | TGI [40]: > 100 µM | TGI [41]: > 100 µM | TGI [42]: > 100 µM | TGI [44]: > 100 µM | TGI [45]: > 100 µM | TGI [46]: > 100 µM | TGI [47]: > 100 µM | TGI [48]: > 100 µM | TGI [49]: > 100 µM | TGI [51]: > 100 µM | TGI [52]: > 100 µM | TGI [53]: > 100 µM | TGI [54]: > 100 µM | TGI [55]: > 100 µM | TGI [56]: > 100 µM | TGI [57]: > 100 µM
